Experimental data published in US11008282B2, “Bicyclic-compounds for use as a medicament, in particular for treatment of parkinson's disease” (CAPROTEC BIOANALYTICS GMBH, priority 2015, dated 2021).
pIC50: −log10 of the molar value. “Also recorded” adds a separate entry of the source. Like-named read-outs stand apart in the source and are kept apart here.

What was measured:
[1] = target: T1, HIBCH (Homo sapiens, UniProt Q6NVY1); test: Capture assay with CPT-224 followed by anti-HIBCH / streptavidin Western Blot; type: binding; set-up: made in house; host or cells: E. coli BL21; details: for competition of HIBCH capturing (anti-HIBCH Western Blot): CPT-224, competitor; for competition of crosslinking of HIBCH with CPT-224 (anti-Streptavidin Western Blot): recombinant HIBCH
T1 sequence (Q6NVY1 33-386): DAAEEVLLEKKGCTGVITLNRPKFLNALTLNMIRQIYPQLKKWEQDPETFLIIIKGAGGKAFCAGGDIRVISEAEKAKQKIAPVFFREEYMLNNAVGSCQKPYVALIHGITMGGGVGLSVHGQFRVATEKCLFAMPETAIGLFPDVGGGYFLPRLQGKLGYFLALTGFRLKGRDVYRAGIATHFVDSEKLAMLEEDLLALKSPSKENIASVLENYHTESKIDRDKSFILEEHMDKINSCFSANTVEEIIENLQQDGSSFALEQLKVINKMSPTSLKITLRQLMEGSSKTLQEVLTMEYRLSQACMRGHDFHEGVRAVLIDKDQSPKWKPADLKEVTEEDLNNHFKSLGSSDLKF

[2] = tested on: HepG2 cells; test: Mitochondrial toxicity assessment (Glu/Gal), ATPlite / Mitochondrial ToxGlo assay; type: cell-based, human; details: for mitochondrial cytotoxicity: HepG2 cells (FIG. 7); for IC50 in galactose media compared to glucose media: ATP content, HepG2 cells
[3] = target: T2, COMT (Homo sapiens, UniProt P21964); test: CCMS differential competition and dose-dependent capturing, HepG2 lysate; type: binding; details: for Fc: fold change assay vs competition, 50 μM competitor; for Fc / MS/MS: CPT-224 1 μM; for MS/MS: with 50 μM competitor, HepG2 lysate; for competition of COMT capture, dose-dependent capturing: CPT-224 5 μM to 40 nM
T2 construct: performing CCMS experiments in the hepatoma-derived cell line HepG2; host or cells: HepG2 lysate
T2 sequence (P21964 1-271): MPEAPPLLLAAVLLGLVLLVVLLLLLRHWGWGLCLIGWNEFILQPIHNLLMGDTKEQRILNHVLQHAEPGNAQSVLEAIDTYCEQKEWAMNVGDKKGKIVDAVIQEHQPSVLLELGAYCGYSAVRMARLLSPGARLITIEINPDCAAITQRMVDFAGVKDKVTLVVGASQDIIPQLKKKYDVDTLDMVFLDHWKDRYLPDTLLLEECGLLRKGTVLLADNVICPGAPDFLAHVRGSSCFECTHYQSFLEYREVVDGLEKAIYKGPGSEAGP

[4] = target: T3, GCDH (Homo sapiens, UniProt Q92947); test: CCMS differential competition, HepG2 lysate, active capture compound CPT-224; type: binding; details: CPT-224 1 μM; for Fc: fold change assay vs competition, 50 μM competitor; for MS/MS: with 50 μM competitor, HepG2 lysate
T3 construct: performing CCMS experiments in the hepatoma-derived cell line HepG2; host or cells: HepG2 lysate
T3 sequence (Q92947 45-438): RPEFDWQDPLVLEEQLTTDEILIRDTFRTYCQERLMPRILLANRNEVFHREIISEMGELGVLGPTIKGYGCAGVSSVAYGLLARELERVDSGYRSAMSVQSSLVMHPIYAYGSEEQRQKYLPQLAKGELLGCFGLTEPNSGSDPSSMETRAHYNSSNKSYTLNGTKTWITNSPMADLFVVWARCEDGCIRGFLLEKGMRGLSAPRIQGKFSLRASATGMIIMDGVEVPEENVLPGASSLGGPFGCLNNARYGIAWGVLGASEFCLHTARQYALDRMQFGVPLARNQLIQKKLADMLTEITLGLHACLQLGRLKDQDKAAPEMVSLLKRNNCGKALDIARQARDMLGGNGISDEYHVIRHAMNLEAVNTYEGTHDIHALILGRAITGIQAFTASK

[5] = target: T4, CCBL2 (Homo sapiens, UniProt Q6YP21); test: as above; type: binding; details: CPT-224 1 μM; for Fc: fold change assay vs competition, 50 μM competitor; for MS/MS: with 50 μM competitor, HepG2 lysate
T4 construct: performing CCMS experiments in the hepatoma-derived cell line HepG2; host or cells: HepG2 lysate

[6] = target: T5, ADI1 (Homo sapiens, UniProt Q9BV57); test: as above; type: binding; details: CPT-224 1 μM; for Fc: fold change assay vs competition, 50 μM competitor; for MS/MS: with 50 μM competitor, HepG2 lysate
T5 construct: performing CCMS experiments in the hepatoma-derived cell line HepG2; host or cells: HepG2 lysate
T5 sequence (Q9BV57 1-179): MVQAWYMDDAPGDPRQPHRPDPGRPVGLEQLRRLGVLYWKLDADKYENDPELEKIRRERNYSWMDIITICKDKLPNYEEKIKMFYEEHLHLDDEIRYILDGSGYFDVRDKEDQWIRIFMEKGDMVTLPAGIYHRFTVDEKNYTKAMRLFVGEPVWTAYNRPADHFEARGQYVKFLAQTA

[7] = tested on: HepG2 cells; details: human
[8] = target: T6, COMT (Homo sapiens, UniProt P21964); test: COMT activity microplate assay (aesculetin methylation, fluorometric); type: biochemical
T6 construct: His; host or cells: E. coli BL21
T6 sequence (P21964 1-221 isoform P21964-2): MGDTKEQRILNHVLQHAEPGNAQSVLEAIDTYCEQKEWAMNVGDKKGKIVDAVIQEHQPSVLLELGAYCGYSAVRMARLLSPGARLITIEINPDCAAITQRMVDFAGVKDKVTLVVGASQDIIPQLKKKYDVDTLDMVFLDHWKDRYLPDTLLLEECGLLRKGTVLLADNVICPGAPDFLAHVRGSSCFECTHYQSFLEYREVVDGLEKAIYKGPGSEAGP

[9] = target: T7, NIPSNAP3A (Homo sapiens, UniProt Q9UFN0); test: CCMS differential competition, HepG2 lysate, inactive capture compound CPT-220; type: binding; details: CPT-220 1 μM; for Fc: fold change assay vs competition, 50 μM competitor; for MS/MS: with 50 μM competitor, HepG2 lysate
T7 construct: performing CCMS experiments in the hepatoma-derived cell line HepG2; host or cells: HepG2 lysate
T7 sequence (Q9UFN0 1-247): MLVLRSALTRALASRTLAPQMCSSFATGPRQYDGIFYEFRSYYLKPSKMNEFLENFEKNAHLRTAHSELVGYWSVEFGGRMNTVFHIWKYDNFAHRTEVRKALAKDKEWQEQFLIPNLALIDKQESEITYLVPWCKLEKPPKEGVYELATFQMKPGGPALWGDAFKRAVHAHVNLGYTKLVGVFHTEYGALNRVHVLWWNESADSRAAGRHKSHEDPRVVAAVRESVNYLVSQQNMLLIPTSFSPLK

[10] = target: T8, PDXK (Homo sapiens, UniProt O00764); test: as above; type: binding; details: CPT-220 1 μM; for Fc: fold change assay vs competition, 50 μM competitor; for MS/MS: with 50 μM competitor, HepG2 lysate
T8 construct: performing CCMS experiments in the hepatoma-derived cell line HepG2; host or cells: HepG2 lysate
T8 sequence (O00764 1-312): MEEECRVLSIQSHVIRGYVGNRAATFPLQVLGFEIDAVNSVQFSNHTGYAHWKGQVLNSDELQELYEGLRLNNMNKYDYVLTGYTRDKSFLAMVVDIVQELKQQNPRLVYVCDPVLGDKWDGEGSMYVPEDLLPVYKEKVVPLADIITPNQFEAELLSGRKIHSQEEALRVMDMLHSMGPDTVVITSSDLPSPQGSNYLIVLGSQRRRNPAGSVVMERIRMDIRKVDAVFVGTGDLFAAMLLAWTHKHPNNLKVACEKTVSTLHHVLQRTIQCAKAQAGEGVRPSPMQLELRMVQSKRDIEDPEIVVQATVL

[11] = target: T9, AKR1B10 (Homo sapiens, UniProt O60218); test: as above; type: binding; details: CPT-220 1 μM; for Fc: fold change assay vs competition, 50 μM competitor; for MS/MS: with 50 μM competitor, HepG2 lysate
T9 construct: performing CCMS experiments in the hepatoma-derived cell line HepG2; host or cells: HepG2 lysate

[12] = target: T6, COMT; test: Capture assay with CPT-224 followed by anti-COMT / streptavidin Western Blot; type: binding; details: for competition of COMT capturing (anti-COMT Western Blot): active capture compound, competitor; for competition of crosslinking of COMT with CPT-224 (anti-Streptavidin Western Blot): recombinant COMT
[13] = target: T1, HIBCH; test: dCCMS and dose-dependent capturing, HepG2 lysate; type: binding; set-up: performing CCMS experiments in the hepatoma-derived cell line HepG2; host or cells: HepG2 lysate; details: for competition of HIBCH capture (dCCMS): CPT-224 1 μM, competitor 50 μM, HepG2 lysate; for binding to HIBCH: dCCMS (FIG. 5, FIG. 6)
[14] = in vivo; cited from earlier work
[15] = target: Aβ42 protofibrils (Homo sapiens, UniProt P05067); details: cited from earlier work
[16] = target: α-synuclein monomers (Homo sapiens, UniProt P37840); details: cited from earlier work
[17] = target: enoyl-acyl carrier protein reductase (InhA) (Mycobacterium tuberculosis, UniProt P9WGR1); details: cited from earlier work
Chain of enoyl-acyl carrier protein reductase (InhA) (P9WGR1 whole entry, looked up): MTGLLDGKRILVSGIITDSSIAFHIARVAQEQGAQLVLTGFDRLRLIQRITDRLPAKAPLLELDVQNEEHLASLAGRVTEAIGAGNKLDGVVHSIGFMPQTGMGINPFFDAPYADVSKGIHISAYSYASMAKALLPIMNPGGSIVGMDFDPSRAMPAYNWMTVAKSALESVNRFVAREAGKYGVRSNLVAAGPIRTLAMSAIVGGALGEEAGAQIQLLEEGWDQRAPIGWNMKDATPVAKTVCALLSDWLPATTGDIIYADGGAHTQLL

T4 sequence (Q6YP21 whole entry): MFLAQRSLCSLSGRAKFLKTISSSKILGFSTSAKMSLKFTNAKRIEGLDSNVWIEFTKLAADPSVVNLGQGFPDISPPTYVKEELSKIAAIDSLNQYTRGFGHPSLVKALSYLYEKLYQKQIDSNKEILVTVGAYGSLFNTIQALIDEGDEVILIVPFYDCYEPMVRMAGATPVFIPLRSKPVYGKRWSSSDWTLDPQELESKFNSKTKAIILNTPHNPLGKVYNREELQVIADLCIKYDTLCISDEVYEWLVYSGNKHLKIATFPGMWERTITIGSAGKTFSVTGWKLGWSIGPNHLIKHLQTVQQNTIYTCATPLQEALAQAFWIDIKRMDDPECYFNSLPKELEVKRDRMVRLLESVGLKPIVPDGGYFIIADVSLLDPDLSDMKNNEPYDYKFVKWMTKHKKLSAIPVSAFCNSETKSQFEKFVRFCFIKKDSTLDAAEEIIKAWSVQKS
T9 sequence (O60218 whole entry): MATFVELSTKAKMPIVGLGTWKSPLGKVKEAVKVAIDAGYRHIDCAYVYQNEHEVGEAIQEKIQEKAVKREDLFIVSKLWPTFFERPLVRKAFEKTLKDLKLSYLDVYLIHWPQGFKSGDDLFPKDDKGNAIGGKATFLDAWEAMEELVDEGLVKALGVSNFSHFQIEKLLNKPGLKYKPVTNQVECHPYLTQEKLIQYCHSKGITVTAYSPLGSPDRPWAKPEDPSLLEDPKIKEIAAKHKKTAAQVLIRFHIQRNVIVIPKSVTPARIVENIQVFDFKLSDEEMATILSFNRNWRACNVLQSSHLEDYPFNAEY
Chain of Aβ42 protofibrils (P05067 672-713 limits assumed): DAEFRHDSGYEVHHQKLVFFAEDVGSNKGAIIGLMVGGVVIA

Row | Structure (SMILES) | competition of HIBCH capturing (anti-HIBCH Western Blot) [1] | competition of crosslinking of HIBCH with CPT-224 (anti-Streptavidin Western Blot) [1] | mitochondrial cytotoxicity [2] | Fc [3] | MS/MS [3] | Fc [4] | MS/MS [4] | Fc [5] | MS/MS [5] | Fc [6] | MS/MS [6] | mitochondrial membrane potential ([7]; 50 μM) | mitochondrial membrane potential ([7]; 100 μM) | pIC50 [8] | Fc [9] | MS/MS [9] | Fc [10] | MS/MS [10] | competition of HIBCH capture (dCCMS) [13] | IC50 in galactose media compared to glucose media [2] | further results
1 | CCN1C(=O)S/C(=C\c2cc(O)c(O)c([N+](=O)[O-])c2)C1=O [CPT-212] | capturing was abolished | competed | significantly higher than that of entacapone and CPT-401 (A1) | 10.90 | 5 | 6.34 | 2.3 | 3.40 | 2 | 4.29 | 0.3 | 20-30 % of untreated HepG2 cells | 0-5 % of the control | 6.75 | 3 | 0.025 | 24.9 | 3.75 | specifically competed |  | Fc [11]: 3.1; MS/MS [11]: 0; competition of COMT capturing (anti-COMT Western Blot) [12]: signals were abolished; competition of crosslinking of COMT with CPT-224 (anti-Streptavidin Western Blot) [12]: competed; binding to HIBCH [13]: identified to bind
2 | CCN(CC)C(=O)c1cc2cc(O)c(O)c([N+](=O)[O-])c2cc1C(=O)N(CC)CC [CPT-401, N2,N2,N3,N3-tetraethyl-6,7-dihydroxy-5-nitro-naphthalene-2,3-dicarboxamide] |  | no competition | low mitochondrial cytotoxicity | 34.2 | 3 | 5.90 | 2.6 | 3.05 | 2.6 | 3.67 | 0.3 | more than 50 % of untreated HepG2 cells | 40-50 % of the control | 7.27 | 7.5 | 0 | 16 | 0 | no competition was observed | much less than for CPT-212 (B1) | competition of COMT capture, dose-dependent capturing [3]: complete competition; Fc [11]: 4.7; MS/MS [11]: 0.5; competition of COMT capturing (anti-COMT Western Blot) [12]: signals were abolished; competition of crosslinking of COMT with CPT-224 (anti-Streptavidin Western Blot) [12]: competed
3 | CCN(CC)C(=O)/C(C#N)=C/c1cc(O)c(O)c([N+](=O)[O-])c1 [entacapone, reference compound] |  |  |  |  |  |  |  |  |  |  |  | more than 50 % of untreated HepG2 cells | 40-50 % of the control |  |  |  |  |  |  | a much smaller effect | toxicity [14]: more favorable toxicity profile
4 | Cc1ccc(C(=O)c2cc(O)c(O)c([N+](=O)[O-])c2)cc1 [tolcapone, reference compound] | capturing was abolished | competed | mitochondrial toxicant; also recorded: significantly higher than that of entacapone and CPT-401 (A1) |  |  |  |  |  |  |  |  | 20-30 % of untreated HepG2 cells | 0-5 % of the control |  |  |  |  |  | specifically identified when tolcapone was used as competitor | > 4 fold | inhibition of aggregation of Aβ42 protofibrils to mature amyloid fibrils [15]: inhibit the aggregation of Aβ42 protofibrils to mature amyloid fibrils; inhibition of aggregation of α-synuclein monomers [16]: inhibit aggregation of α-synuclein monomers; competition of COMT capture, dose-dependent capturing [3]: complete competition; toxicity [14]: severe hepatotoxicity in several cases; competition of HIBCH capture, dose-dependent capturing ([13]; CPT-224 5 μM to 40 nM): competed only with tolcapone; binding to HIBCH [13]: identified to bind; binding and inhibition of InhA [17]: bind and inhibit
